Experimental data from ChEMBL document CHEMBL1201862, “PubChem BioAssay data set” (2004).
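Cultured in 96-well plates, cells were exposed to test compound for 48 hours across five concentrations. Abbreviation: GI50, concentration required for 50% inhibition of growth.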 Activity calls are given as the source filed them. Rule as the data show it: active = GI50 up to about 1.1 µM and inactive = higher.

How the values were obtained:
Test in all cases: growth of human tumour cells (NCI), 48 h
SF-295 = test system: SF-295
UO-31 = test system: UO-31
MOLT-4 = test system: MOLT-4
LOX IMVI = test system: LOX IMVI
SF-539 = test system: SF-539
SNB-19 = test system: SNB-19
SNB-75 = test system: SNB-75
786-0 = test system: 786-0
DLD-1 = test system: DLD-1
OVCAR-3 = test system: OVCAR-3
OVCAR-5 = test system: OVCAR-5
HOP-18 = test system: HOP-18
NCI-H23 = test system: NCI-H23
M14 = test system: M14
HT-29 = test system: HT-29
SK-MEL-28 = test system: SK-MEL-28
TK-10 = test system: TK-10
RPMI-8226 = test system: RPMI-8226
CCRF-CEM = test system: CCRF-CEM
UACC-62 = test system: UACC-62
SK-MEL-2 = test system: SK-MEL-2
A549 = test system: A549
NCI-H226 = test system: NCI-H226
SN12C = test system: SN12C
NCI-H522 = test system: NCI-H522
SR = test system: SR
IGROV-1 = test system: IGROV-1
SK-MEL-5 = test system: SK-MEL-5
SNB-78 = test system: SNB-78
NCI-H460 = test system: NCI-H460
OVCAR-4 = test system: OVCAR-4
M19-MEL = test system: M19-MEL
HCT-15 = test system: HCT-15
CAKI-1 = test system: CAKI-1
SK-OV-3 = test system: SK-OV-3
OVCAR-8 = test system: OVCAR-8
HCT-116 = test system: HCT-116
UACC-257 = test system: UACC-257
RXF 393 = test system: RXF 393
U-251 = test system: U-251
COLO 205 = test system: COLO 205
KM12 = test system: KM12
K562 = test system: K562
XF498 = test system: XF498
HOP-62 = test system: HOP-62
LXFL 529 = test system: LXFL 529
DMS-114 = test system: DMS-114
KM-20L2 = test system: KM-20L2
SW-620 = test system: SW-620
Malme-3M = test system: Malme-3M
EKVX = test system: EKVX
HL-60 = test system: HL-60
A498 = test system: A498
HCC 2998 = test system: HCC 2998
ACHN = test system: ACHN
SF-268 = test system: SF-268
DMS-273 = test system: DMS-273

For `OCCNCCOc1ccc(/C(=C(/Cl)c2ccccc2)c2ccccc2)cc1`, the GI50 (SF-295) was 15.2 µM (inactive), the GI50 (UO-31) was 9.48 µM (inactive) and the GI50 (MOLT-4) was 1.69 µM (inactive). For the same compound, the GI50 (LOX IMVI) was 3.49 µM (inactive), the GI50 (SF-539) was 13.6 µM (inactive) and the GI50 (SNB-19) was 13.9 µM (inactive). The GI50 (SNB-75) was 2.37 µM (inactive), the GI50 (786-0) was 9.68 µM (inactive) and the GI50 (DLD-1) was 12.1 µM (inactive). For the same compound, the GI50 (OVCAR-3) was 12.1 µM (inactive), the GI50 (OVCAR-5) was 15.1 µM (inactive) and the GI50 (HOP-18) was 19.3 µM (inactive). The GI50 (NCI-H23) was 14.7 µM (inactive), the GI50 (M14) was 1.87 µM (inactive) and the GI50 (HT-29) was 1.11 µM (active). For the same compound, the GI50 (SK-MEL-28) was 1.14 µM (inactive), the GI50 (TK-10) was 0.408 µM (active) and the GI50 (RPMI-8226) was 4.42 µM (inactive). For the same compound, the GI50 (CCRF-CEM) was 1.92 µM (inactive), the GI50 (UACC-62) was 12.5 µM (inactive) and the GI50 (SK-MEL-2) was 13.2 µM (inactive). The GI50 (A549) was 0.34 µM (active), the GI50 (NCI-H226) was 21.6 µM (inactive) and the GI50 (SN12C) was 5.3 µM (inactive). The GI50 (NCI-H522) was 14 µM (inactive), the GI50 (SR) was 3.34 µM (inactive) and the GI50 (IGROV-1) was 10.5 µM (inactive). The GI50 (SK-MEL-5) was 6.25 µM (inactive), the GI50 (SNB-78) was 8.51 µM (inactive) and the GI50 (NCI-H460) was 3.4 µM (inactive). The GI50 (OVCAR-4) was 16.5 µM (inactive), the GI50 (M19-MEL) was 10.9 µM (inactive) and the GI50 (HCT-15) was 5.58 µM. The GI50 (CAKI-1) was 12.4 µM (inactive), the GI50 (SK-OV-3) was 3 µM (inactive) and the GI50 (OVCAR-8) was 13.5 µM (inactive). For the same compound, the GI50 (HCT-116) was 4.99 µM (inactive), the GI50 (UACC-257) was 2.21 µM (inactive) and the GI50 (RXF 393) was 0.637 µM (active). For the same compound, the GI50 (U-251) was 8.43 µM (inactive), the GI50 (COLO 205) was 3.56 µM (inactive) and the GI50 (KM12) was 0.544 µM (active). For the same compound, the GI50 (K562) was 2.85 µM (inactive), the GI50 (XF498) was 2.9 µM (inactive) and the GI50 (HOP-62) was 16.7 µM (inactive). For the same compound, the GI50 (LXFL 529) was 6.92 µM (inactive), the GI50 (DMS-114) was 15.2 µM (inactive) and the GI50 (KM-20L2) was 2.47 µM (inactive). The GI50 (SW-620) was 4.44 µM (inactive), the GI50 (Malme-3M) was 0.246 µM (active) and the GI50 (EKVX) was 14.7 µM (inactive). The GI50 (HL-60) was 0.729 µM (active).

In the case of `CCOC(=O)CN(c1ccccc1)c1nc(=[N+](C)C)ss1`, the GI50 (UO-31) is reported as 23.7 µM (inactive), the GI50 (MOLT-4) is reported as 1.77 µM (inactive) and the GI50 (SF-539) is reported as 40.1 µM (inactive). The GI50 (SNB-19) was 61.9 µM (inactive), the GI50 (SNB-75) was 29 µM (inactive) and the GI50 (786-0) was 37.9 µM (inactive). For the same compound, the GI50 (DLD-1) was 6.93 µM (inactive), the GI50 (OVCAR-3) was 0.284 µM (active) and the GI50 (HOP-18) was 53 µM (inactive). The GI50 (M14) was 32.4 µM (inactive), the GI50 (SK-MEL-28) was 26.4 µM (inactive) and the GI50 (TK-10) was 47.4 µM (inactive). The GI50 (RPMI-8226) was 1.19 µM (inactive), the GI50 (CCRF-CEM) was 0.979 µM (active) and the GI50 (UACC-62) was 26.9 µM (inactive). The GI50 (SK-MEL-2) was 19.8 µM (inactive), the GI50 (A549) was 30.4 µM (inactive) and the GI50 (NCI-H226) was 23.8 µM (inactive). For the same compound, the GI50 (A498) was 42.5 µM (inactive), the GI50 (SN12C) was 17.9 µM (inactive) and the GI50 (NCI-H522) was 0.24 µM (active). For the same compound, the GI50 (SR) was 0.678 µM (active), the GI50 (IGROV-1) was > 10 µM (inactive) and the GI50 (SNB-78) was 32.4 µM (inactive). For the same compound, the GI50 (OVCAR-4) was 17.7 µM (inactive), the GI50 (M19-MEL) was 0.303 µM (active) and the GI50 (HCT-15) was 16.4 µM. For the same compound, the GI50 (HCC 2998) was 41.1 µM (inactive), the GI50 (CAKI-1) was 50.9 µM (inactive) and the GI50 (ACHN) was 35.7 µM (inactive). For the same compound, the GI50 (SK-OV-3) was 85.1 µM (inactive), the GI50 (OVCAR-8) was 20 µM (inactive) and the GI50 (HCT-116) was 5.65 µM (inactive). For the same compound, the GI50 (UACC-257) was 24.3 µM (inactive), the GI50 (RXF 393) was 10.5 µM (inactive) and the GI50 (U-251) was 17.9 µM (inactive). The GI50 (COLO 205) was 2.06 µM (inactive), the GI50 (SF-268) was 45.2 µM (inactive) and the GI50 (K562) was 6.78 µM (inactive). The GI50 (HOP-62) was 33 µM (inactive), the GI50 (DMS-273) was 0.318 µM (active) and the GI50 (DMS-114) was 0.309 µM (active). The GI50 (KM-20L2) was 54.7 µM (inactive), the GI50 (SW-620) was 53.1 µM (inactive) and the GI50 (Malme-3M) was 21.2 µM (inactive). The GI50 (HL-60) was 13.1 µM (inactive).
